In patent US9212182B2, “Bicyclic sulfonamide compounds as sodium channel inhibitors” (AMGEN INC., priority 2013, dated 2015):

Target: Nav 1.7 (Homo sapiens (Human), UniProt Q15858)
Assay: in-vitro Nav 1.7 PX (IC50)
Type: cell-based
Conditions: not given

Chain of Nav 1.7 (Q15858 whole entry): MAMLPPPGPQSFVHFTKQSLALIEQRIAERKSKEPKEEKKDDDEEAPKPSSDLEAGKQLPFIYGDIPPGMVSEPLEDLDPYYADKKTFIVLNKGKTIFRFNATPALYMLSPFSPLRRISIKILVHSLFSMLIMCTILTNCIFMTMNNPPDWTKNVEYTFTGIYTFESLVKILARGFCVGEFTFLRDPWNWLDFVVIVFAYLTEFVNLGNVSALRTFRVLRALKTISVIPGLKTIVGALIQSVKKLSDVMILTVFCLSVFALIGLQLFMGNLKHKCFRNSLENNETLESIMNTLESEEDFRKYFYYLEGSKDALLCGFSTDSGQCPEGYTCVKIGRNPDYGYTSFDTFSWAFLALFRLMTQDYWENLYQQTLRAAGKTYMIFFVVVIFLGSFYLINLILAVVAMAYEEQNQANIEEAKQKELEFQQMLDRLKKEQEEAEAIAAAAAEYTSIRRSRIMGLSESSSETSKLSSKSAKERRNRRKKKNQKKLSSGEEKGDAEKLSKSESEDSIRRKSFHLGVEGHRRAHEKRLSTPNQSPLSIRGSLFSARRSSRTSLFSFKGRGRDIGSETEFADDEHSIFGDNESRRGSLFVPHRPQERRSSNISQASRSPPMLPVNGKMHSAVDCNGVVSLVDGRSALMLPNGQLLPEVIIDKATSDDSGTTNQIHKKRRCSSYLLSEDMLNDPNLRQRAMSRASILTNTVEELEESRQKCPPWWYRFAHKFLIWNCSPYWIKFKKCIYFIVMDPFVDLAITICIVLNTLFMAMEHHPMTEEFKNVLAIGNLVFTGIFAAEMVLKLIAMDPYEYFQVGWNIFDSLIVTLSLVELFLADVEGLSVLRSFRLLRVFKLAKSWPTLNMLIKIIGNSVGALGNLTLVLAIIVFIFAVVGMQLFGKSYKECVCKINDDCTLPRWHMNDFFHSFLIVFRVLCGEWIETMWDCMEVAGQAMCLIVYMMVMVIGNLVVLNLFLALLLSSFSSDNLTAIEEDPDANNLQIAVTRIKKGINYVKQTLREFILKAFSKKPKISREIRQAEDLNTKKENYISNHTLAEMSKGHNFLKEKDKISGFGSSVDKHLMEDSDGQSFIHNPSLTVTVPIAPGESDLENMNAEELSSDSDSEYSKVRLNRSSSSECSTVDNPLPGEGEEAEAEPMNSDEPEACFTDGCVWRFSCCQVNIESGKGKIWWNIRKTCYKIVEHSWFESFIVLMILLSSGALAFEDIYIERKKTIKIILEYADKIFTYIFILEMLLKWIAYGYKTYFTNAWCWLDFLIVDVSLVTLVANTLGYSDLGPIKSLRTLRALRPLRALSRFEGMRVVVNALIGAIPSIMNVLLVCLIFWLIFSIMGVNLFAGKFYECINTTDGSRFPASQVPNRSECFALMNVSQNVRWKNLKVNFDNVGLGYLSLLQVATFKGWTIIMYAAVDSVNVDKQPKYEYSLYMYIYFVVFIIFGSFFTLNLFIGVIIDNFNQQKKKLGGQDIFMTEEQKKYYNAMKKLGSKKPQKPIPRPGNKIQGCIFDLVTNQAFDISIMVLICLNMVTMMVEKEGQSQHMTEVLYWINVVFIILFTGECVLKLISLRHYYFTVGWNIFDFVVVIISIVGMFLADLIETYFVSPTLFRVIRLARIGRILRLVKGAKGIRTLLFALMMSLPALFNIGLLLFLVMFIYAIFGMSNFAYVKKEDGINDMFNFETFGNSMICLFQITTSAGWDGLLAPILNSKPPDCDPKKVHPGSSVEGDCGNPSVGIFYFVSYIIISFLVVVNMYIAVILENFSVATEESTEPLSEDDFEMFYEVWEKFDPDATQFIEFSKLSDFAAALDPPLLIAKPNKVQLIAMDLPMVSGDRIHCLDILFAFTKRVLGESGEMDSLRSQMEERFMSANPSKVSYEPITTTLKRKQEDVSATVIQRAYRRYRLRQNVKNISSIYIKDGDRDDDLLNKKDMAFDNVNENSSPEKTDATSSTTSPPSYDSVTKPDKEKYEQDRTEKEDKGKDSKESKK

Compound	IC50 [nM]
COc1cc(-c2ccc(Cl)c(C)c2)c(F)cc1-n1c(=O)c(OC)cc2cc(S(=O)(=O)Nc3ccon3)ccc21 (atropisomer, axis not shown; (M)) [Example 413, (M)-1-(4′-chloro-2-fluoro-5-methoxy-3′-methyl-[1,1′-biphenyl]-4-yl)-N-(isoxazol-3-yl)-3-methoxy-2-oxo-1,2-dihydroquinoline-6-sulfonamide]	5890
COc1cc(-c2cc(F)cc(Cl)c2)c(C)cc1-n1c(=O)ccc2cc(S(=O)(=O)Nc3ccon3)ccc21 (atropisomer, axis not shown; (M)) [Example 418, (M)-1-(3′-chloro-5′-fluoro-5-methoxy-2-methyl-4-biphenylyl)-N-3-isoxazolyl-2-oxo-1,2-dihydro-6-quinolinesulfonamide]	309
COc1ccc(-c2ccnc(F)c2)cc1-n1c(=O)ccc2cc(S(=O)(=O)Nc3ccon3)ccc21 [Example 496, 1-(5-(2-fluoro-4-pyridinyl)-2-methoxyphenyl)-N-3-isoxazolyl-2-oxo-1,2-dihydro-6-quinolinesulfonamide]	2770
COc1cc(-c2cccc(F)c2)c(Cl)cc1-n1c(=O)ccc2cc(S(=O)(=O)Nc3cccnn3)ccc21 (atropisomer, axis not shown; (M)) [Example 468, (M)-1-(2-chloro-3′-fluoro-5-methoxy-[1,1′-biphenyl]-4-yl)-2-oxo-N-(pyridazin-3-yl)-1,2-dihydroquinoline-6-sulfonamide]	7000
COc1ccc(-c2cnn(C)c2)cc1-n1c(=O)ccc2cc(S(=O)(=O)Nc3ccon3)ccc21 [Example 486, N-3-isoxazolyl-1-(2-methoxy-5-(1-methyl-1H-pyrazol-4-yl)phenyl)-2-oxo-1,2-dihydro-6-quinolinesulfonamide]	27100
COc1cc(-c2cccc(Cl)c2)cc(F)c1-n1c(=O)ccc2cc(S(=O)(=O)Nc3ccon3)ccc21 (atropisomer, axis not shown; (P)) [Example 320, (P)-1-(3′-chloro-3-fluoro-5-methoxy-4-biphenylyl)-N-3-isoxazolyl-2-oxo-1,2-dihydro-6-quinolinesulfonamide]	141

Same assay, conditions: in-vitro Nav 1.7 PX data

Compound	IC50 [nM]
COc1cc(-c2ccc(OC)c(-n3c(=O)ccc4cc(S(=O)(=O)Nc5ccon5)ccc43)c2)ccc1F [Example 889, 1-(4′-fluoro-3′,4-dimethoxy-3-biphenylyl)-N-3-isoxazolyl-2-oxo-1,2-dihydro-6-quinolinesulfonamide]	184
COc1cc(-c2cncc(F)c2)c(F)cc1-n1c(=O)ccc2cc(S(=O)(=O)Nc3ccon3)ccc21 [Example 730, 1-(5-fluoro-4-(5-fluoro-3-pyridinyl)-2-methoxyphenyl)-N-3-isoxazolyl-2-oxo-1,2-dihydro-6-quinolinesulfonamide]	795
COc1cc(CC(C)(C)C)c(F)cc1-n1c(=O)ccc2cc(S(=O)(=O)Nc3ccon3)ccc21 [Example 1076, 1-(4-(2,2-dimethylpropyl)-5-fluoro-2-methoxyphenyl)-N-3-isoxazolyl-2-oxo-1,2-dihydro-6-quinolinesulfonamide]	64
COc1cc(-c2cccc(C3CC3)c2)ccc1-n1c(=O)ccc2cc(S(=O)(=O)Nc3ccon3)ccc21 [Example 788, 1-(3′-cyclopropyl-3-methoxy-4-biphenylyl)-N-3-isoxazolyl-2-oxo-1,2-dihydro-6-quinolinesulfonamide]	6
COc1cc(-c2ccc(F)c(C)c2)c(F)cc1-n1c(=O)ccc2cc(S(=O)(=O)Nc3nnc(C)s3)ccc21 [Example 948, 1-(2,4′-difluoro-5-methoxy-3′-methyl-4-biphenylyl)-N-(5-methyl-1,3,4-thiadiazol-2-yl)-2-oxo-1,2-dihydro-6-quinolinesulfonamide]	100
COc1cc(-c2ccnc(C)c2)c(F)cc1-n1c(=O)ccc2cc(S(=O)(=O)Nc3ccon3)ccc21 [Example 736, 1-(5-fluoro-2-methoxy-4-(2-methyl-4-pyridinyl)phenyl)-N-3-isoxazolyl-2-oxo-1,2-dihydro-6-quinolinesulfonamide]	2810
COc1cc(-c2cccc(C(F)(F)F)c2)c(F)cc1-n1c(=O)ccc2cc(S(=O)(=O)[N-][n+]3ccccc3)ccc21 [Example 817, ((1-(2-fluoro-5-methoxy-3′-(trifluoromethyl)-4-biphenylyl)-2-oxo-1,2-dihydro-6-quinolinyl)sulfonyl)(1-pyridiniumyl)azanide]	4530
COc1cc(-c2ccc(Cl)cc2)ccc1-n1c(=O)ccc2cc(S(=O)(=O)Nc3ncco3)ccc21 [Example 766, 1-(4′-chloro-3-methoxy-4-biphenylyl)-N-1,3-oxazol-2-yl-2-oxo-1,2-dihydro-6-quinolinesulfonamide]	37
COc1cc(-c2cccc(C)c2)ccc1-n1c(=O)ccc2cc(S(=O)(=O)Nc3cc(C)ncn3)ccc21 [Example 1131, 1-(3-methoxy-3′-methyl-4-biphenylyl)-N-(6-methyl-4-pyrimidinyl)-2-oxo-1,2-dihydro-6-quinolinesulfonamide]	155
COc1cc(-c2cc(Cl)cnc2OC)c(F)cc1-n1c(=O)ccc2cc(S(=O)(=O)Nc3cc(C)ncn3)ccc21 [Example 777, 1-(4-(5-chloro-2-methoxy-3-pyridinyl)-5-fluoro-2-methoxyphenyl)-N-(6-methyl-4-pyrimidinyl)-2-oxo-1,2-dihydro-6-quinolinesulfonamide]	103
COc1cc(-c2ccc(F)c(F)c2)ccc1-n1c(=O)ccc2cc(S(=O)(=O)Nc3ncco3)ccc21 [Example 894, 1-(3′,4′-difluoro-3-methoxy-4-biphenylyl)-N-1,3-oxazol-2-yl-2-oxo-1,2-dihydro-6-quinolinesulfonamide]	83
COc1cc(-c2ccc(C)c(F)c2)c(F)cc1-n1c(=O)ccc2cc(S(=O)(=O)Nc3ncco3)ccc21 [Example 1125, 1-(2,3′-difluoro-5-methoxy-4′-methyl-4-biphenylyl)-N-1,3-oxazol-2-yl-2-oxo-1,2-dihydro-6-quinolinesulfonamide]	81
COc1cc(Br)c(F)cc1-n1c(=O)ccc2cc(S(=O)(=O)Nc3cccc(C)n3)ccc21 [Example 989, 1-(4-bromo-5-fluoro-2-methoxyphenyl)-N-(6-methyl-2-pyridinyl)-2-oxo-1,2-dihydro-6-quinolinesulfonamide]	8610
COc1cc(-c2cccc(OC)c2C)c(F)cc1-n1c(=O)ccc2cc(S(=O)(=O)Nc3ccon3)ccc21 [Example 735, 1-(2-fluoro-3′,5-dimethoxy-2′-methyl-4-biphenylyl)-N-3-isoxazolyl-2-oxo-1,2-dihydro-6-quinolinesulfonamide]	54
COc1ccc(-c2cccc(Cl)c2C)cc1-n1c(=O)ccc2cc(S(=O)(=O)Nc3ccon3)ccc21 [Example 895, 1-(3′-chloro-4-methoxy-2′-methyl-3-biphenylyl)-N-3-isoxazolyl-2-oxo-1,2-dihydro-6-quinolinesulfonamide]	1840
COc1cc(F)cc(-c2cc(OC)c(-n3c(=O)ccc4cc(S(=O)(=O)Nc5ccon5)ccc43)cc2F)c1 [Example 710, 1-(2,3′-difluoro-5,5′-dimethoxy-4-biphenylyl)-N-3-isoxazolyl-2-oxo-1,2-dihydro-6-quinolinesulfonamide]	14
COc1cc(-c2ccc(Cl)cc2)c(F)cc1-n1c(=O)ccc2cc(S(=O)(=O)Nc3ncco3)ccc21 [Example 753, 1-(4′-chloro-2-fluoro-5-methoxy-4-biphenylyl)-N-1,3-oxazol-2-yl-2-oxo-1,2-dihydro-6-quinolinesulfonamide]	37

Same assay, conditions: in-vitro Nav 1.7 PX data (PatchXpress)

Compound	IC50 [nM]
COc1cc(-c2cc(C)c(F)cc2F)ccc1-n1c(=O)ccc2cc(S(=O)(=O)Nc3ccon3)ccc21 [Example 1065, 1-(2′,4′-difluoro-3-methoxy-5′-methyl-4-biphenylyl)-N-3-isoxazolyl-2-oxo-1,2-dihydro-6-quinolinesulfonamide]	9
O=c1ccc2cc(S(=O)(=O)Nc3ncns3)ccc2n1-c1ccc(-c2cc(F)cc(F)c2)cc1C1CC1 [Example 1049, 1-(3-cyclopropyl-3′,5′-difluoro-4-biphenylyl)-2-oxo-N-1,2,4-thiadiazol-5-yl-1,2-dihydro-6-quinolinesulfonamide]	912
COc1cc(-c2cc(F)cc(C(F)F)c2)ccc1-n1c(=O)ccc2cc(S(=O)(=O)Nc3ccon3)ccc21 [Example 1068, 1-(3′-(difluoromethyl)-5′-fluoro-3-methoxy-4-biphenylyl)-N-3-isoxazolyl-2-oxo-1,2-dihydro-6-quinolinesulfonamide]	75

Same assay, conditions: in-vitro PatchXpress (PX)

Compound	IC50 [nM]
COc1cc(-c2ccc(Cl)c(C)c2)ccc1-n1c(=O)ccc2cc(S(=O)(=O)Nc3cccnn3)ccc21 (atropisomer, axis not shown; (M)) [Example 372, (M)-1-(4′-chloro-3-methoxy-3′-methyl-4-biphenylyl)-2-oxo-N-3-pyridazinyl-1,2-dihydro-6-quinolinesulfonamide]	29
COc1cc(-c2cncc(Cl)c2)c(F)cc1-n1c(=O)ccc2cc(S(=O)(=O)Nc3ccon3)ccc21 [Example 407, 1-(4-(5-chloro-3-pyridinyl)-5-fluoro-2-methoxyphenyl)-N-3-isoxazolyl-2-oxo-1,2-dihydro-6-quinolinesulfonamide]	158
COc1cc(-c2ccc(C)c(F)c2)c(F)cc1-n1c(=O)ccc2cc(S(=O)(=O)Nc3ccon3)ccc21 (atropisomer, axis not shown; (M)) [Example 511, (M)-1-(2,3′-difluoro-5-methoxy-4′-methyl-4-biphenylyl)-N-3-isoxazolyl-2-oxo-1,2-dihydro-6-quinolinesulfonamide]	8620
COc1cc(-c2cccc(C#N)c2)c(F)cc1-n1c(=O)ccc2cc(S(=O)(=O)Nc3ccon3)ccc21 (atropisomer, axis not shown; (M)) [Example 499, (M)-1-(3′-cyano-2-fluoro-5-methoxy-4-biphenylyl)-N-3-isoxazolyl-2-oxo-1,2-dihydro-6-quinolinesulfonamide]	24800
COc1cc(N2CC(F)(F)C2)c(F)cc1-n1c(=O)ccc2cc(S(=O)(=O)Nc3ccon3)ccc21 [Example 406, 1-(4-(3,3-difluoro-1-azetidinyl)-5-fluoro-2-methoxyphenyl)-N-3-isoxazolyl-2-oxo-1,2-dihydro-6-quinolinesulfonamide]	1000
